This is an account of results in patent US10301267B2, “Compounds” (AstraZeneca AB, priority 2006, dated 2019).

The target in assay [1] is T1, His6-tagged FGFR kinase domain (Homo sapiens, UniProt P11362, C488A/C584S).
T1 construct: FGFR kinase domain (amino acids 458-765, C488A, C584S) N-terminally fused to a His6-tag and TEV cleavage site; His6-tag plus linker and TEV cleavage site (printed as X1); made in house
The experiment in a line: FGFR Kinase assay - Elisa. The assay is classed as biochemical. The method, then:
To determine inhibition of FGFR activity, kinase assays were conducted using ELISA (Enzyme-Linked Immunosorbent Assay) technology.
Kinase activity assays were performed in 384-well polypropylene plates (Matrix, Catalogue No. 4311. Matrix are part of Thermo Fisher Scientific, 22 Friars Drive, Hudson, N.H. 03051, USA) with a total volume of 40 μl in each well. Each well was coated with 2 μg of polyEAY substrate (Sigma, Catalogue No. P3899) at 4° C. overnight. The plates were then washed once with 100 μl PBS and once with 100 μl 50 mM HEPES (pH 7.4) prior to the addition of the kinase assay reagents. Reactions contained His6-tagged FGFR kinase domain (FGFR kinase domain (amino acids 458-765, C488A, C584S) N-terminally fused to a His6-tag and TEV cleavage site encoded by the following sequence; [[…]]. The final alanine denotes the start of the FGFR protein sequence. The resultant protein was expressed and purified based on Mohammadi et al, Cell Vol 86, 577-587 (1996). Each kinase reaction contained 0.1 ng His6-tagged FGFR kinase domain, 50 mM HEPES (pH 7.4), 0.1 mM Na3VO4, 0.1 mM DTT, 0.05% (v/v) Triton X100, 20 mM MgCl2, 160 μM ATP. Various concentrations of test compounds were each added in 5% (v/v) DMSO to yield a final assay DMSO concentration of 1.25% (v/v). The kinase reactions were incubated at room temperature for 45 minutes and stopped by washing the plate three times with 100 μl PBS plus 0.05% Tween. 40 μl of a one in 10000 dilution of 4G10-HRP antibody (Upstate Biotechnology, UBI 16-105. Upstate are part of Millipore Corporation, 290 Concord Road, Billerca Mass. 01821 USA) made up in 0.5% (w/v) BSA/PBS was then added to each well and the plates incubated at room temperature for one hour. Following this, the plates were then washed repeatedly with 100 μl PBS plus 0.05% Tween to remove all traces of the antibody solution. 40 μl of 50 μg/ml 3,3′,5,5′-Tetramethylbenzidine (Sigma, Catalogue No. T2885), 0.05M phosphate-citrate buffer, containing 0.03% sodium perborate was added to each well and the plates incubated at room temperature for twelve minutes. The colour reaction was stopped by the addition of 20 μl 2M H2SO4 and the plates read at 450 nm on a Spectrafluor Plus (Tecan Trading AG, Switzerland). In the assay, compounds were tested at a range of concentrations.
Percentage inhibition at 1 uM, as expressed herein, is a calculated value based on the curve fit that was generated experimentally. From the fitted curve plot, the effect of compound at a concentration of 1 uM was calculated as a percentage inhibition. The IC50 value is the concentration of test compound that inhibits 50% of FGFR kinase activity.

The target in assay [2] is T2, FGFR1 active kinase (Homo sapiens, UniProt P11362). In words: FGFR Kinase assay - Caliper. On FGFR Kinase assay - Caliper, IC50: 408 µM ATP. The class given is biochemical.
For assay [3], the system named is bFGF stimulated Erk phosphorylation in NIH 3T3 cells. The experiment in a line: Cell pErk - growth factor stimulated Erk phosphorylation. The assay is classed as cell-based. The note with it: Mus musculus. The text has this: Cell Assays Cell pErk—Growth Factor Stimulated Erk Phosphorylation
These and other assays were used to evaluate the ability of a test compound to inhibit growth factor stimulated cellular signalling in mammalian cell lines. This was achieved by measuring the amount of receptor tyrosine kinase regulated Erk phosphorylation within a cell following compound treatment.
NIH 3T3 (ECACC, 93061524) cells were routinely passaged in DMEM (Gibco BRL, 41966) plus 10% foetal calf serum (FCS), 1% L-glutamine (Gibco BRL, 25030) to a confluence not greater than 80%. To undertake the assay, NIH 3T3's were seeded at 1×10^4 cells/well in DMEM plus 10% foetal calf serum, 1% L-glutamine in 96 well plates (Costar, 3904) and incubated at 37° C. (+5% CO2) in a humidified incubator. Once the cells had fully adhered (typically following 4-5 hours incubation) the media was removed from each well and the cells gently washed with 100 μl warm serum free media. 90 μl of serum free DMEM plus 1% L-glutamine was then added to each well and the plates were returned to a humidified 37° C. (+5% CO2) incubator. The following day, the plates were dosed with 10 μl compound (diluted from 10 mM stock in DMSO using serum free DMEM) and the plates were returned to a humidified 37° C. (+5% CO2) incubator for one hour. NIH 3T3 cells were then stimulated with a final concentration of 3 ng/ml bFGF (Sigma, F0291) for 20 minutes at 37° C. Following stimulation the cells were fixed by adding formaldehyde (4% v/v final concentration) and incubating at room temperature for 20 minutes. The fixative solution was then removed and the wells were washed twice with 100 μl phosphate buffered saline (PBS/A) before permeabilising the cells by the addition of 50 μl/well 0.1% triton/PBS/A for 10 minutes at room temperature. The permeabilisation solution was then removed and the cells washed twice more with 100 μl/well PBS/A before the addition of 50 μl/well anti-phospho p44/42 antibody (Cell Signalling Technology, 9106), diluted 1/500 with PBS/A plus 10% FCS. The anti-phospho p44/42 antibody recognises Erk phosphorylated at threonine 202 and tyrosine 204. Following incubation at room temperature for 2 hours, the antibody solution was removed and the wells were washed twice with 100 μl/well PBS/A. 50 μl/well 1/250 goat anti-mouse alexa fluor 488 secondary antibody (Molecular Probes, A11001) and 1/10000 Hoescht (Molecular Probes, H-3570) diluted with PBS/A plus 10% FCS was added and the plate incubated in the dark at room temperature for one hour. Finally, the plates were washed three times with 100 μl/well PBS/A, leaving the final wash in the wells before sealing the plates. The plates were read at 350 nm and 488 nm using an Arrayscan (Cellomics). […] IC50 value is the concentration of test compound that inhibits 50% of Erk phosphorylation.

The target in assay [4] is T2, FGFR1 active kinase. The experiment in a line: FGFR Kinase assay - Caliper Echo Dosing. The class given is biochemical. As to conditions: FGFR1 7.2 nM, 408 uM ATP, acoustic dosing; geometric mean of n.
The mark [5] stands for this setting: FGFR inhibition test, Elisa, read-out: Activity class (FGFR Kinase assay - Elisa).
The mark [6] stands for this setting: FGFR1 […], 408 uM ATP, mean of n as printed, read-out: FGFR Kinase assay - Caliper, IC50.
The mark [7] stands for this setting: FGFR inhibition test, Caliper, read-out: Activity class (FGFR Kinase assay - Caliper).
Setting [8] is: NIH3T3, 3 ng/ml bFGF, read-out: Activity class (Cell pErk).
Where [9] appears, read: polyEAY substrate, 160 μM ATP, read-out: FGFR Kinase assay - Elisa, IC50.

Where two headings read alike, the source gives them in different places.

T1 sequence (P11362 458-765 C488A/C584S): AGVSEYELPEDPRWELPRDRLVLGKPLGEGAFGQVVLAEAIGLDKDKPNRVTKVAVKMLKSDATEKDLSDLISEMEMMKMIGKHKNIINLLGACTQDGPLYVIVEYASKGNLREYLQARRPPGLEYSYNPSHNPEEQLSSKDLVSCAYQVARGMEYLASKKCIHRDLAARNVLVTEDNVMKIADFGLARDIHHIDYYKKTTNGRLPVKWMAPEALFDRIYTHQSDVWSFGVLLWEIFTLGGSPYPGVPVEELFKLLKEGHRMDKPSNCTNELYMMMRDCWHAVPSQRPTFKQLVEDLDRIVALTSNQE
T2 sequence (P11362 22-822): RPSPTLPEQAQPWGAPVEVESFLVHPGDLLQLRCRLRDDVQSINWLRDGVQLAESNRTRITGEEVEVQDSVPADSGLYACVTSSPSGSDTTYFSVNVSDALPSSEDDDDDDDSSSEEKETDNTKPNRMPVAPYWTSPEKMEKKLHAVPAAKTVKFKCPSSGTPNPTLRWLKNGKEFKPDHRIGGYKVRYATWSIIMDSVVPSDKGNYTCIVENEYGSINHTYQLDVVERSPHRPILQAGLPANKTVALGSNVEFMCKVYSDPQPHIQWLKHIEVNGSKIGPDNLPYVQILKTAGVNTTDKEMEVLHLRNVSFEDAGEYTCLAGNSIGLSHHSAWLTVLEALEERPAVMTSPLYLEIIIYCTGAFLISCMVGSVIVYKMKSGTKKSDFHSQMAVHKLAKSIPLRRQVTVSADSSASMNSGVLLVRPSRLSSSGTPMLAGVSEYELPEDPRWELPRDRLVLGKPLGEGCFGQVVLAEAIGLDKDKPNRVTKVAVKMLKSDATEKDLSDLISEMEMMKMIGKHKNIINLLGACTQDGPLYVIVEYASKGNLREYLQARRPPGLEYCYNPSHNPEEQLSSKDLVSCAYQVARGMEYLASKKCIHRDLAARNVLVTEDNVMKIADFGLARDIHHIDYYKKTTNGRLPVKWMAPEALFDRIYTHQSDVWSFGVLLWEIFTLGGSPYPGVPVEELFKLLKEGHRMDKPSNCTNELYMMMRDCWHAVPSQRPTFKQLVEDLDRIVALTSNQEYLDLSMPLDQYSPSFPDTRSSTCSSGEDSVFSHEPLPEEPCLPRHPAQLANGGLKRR

Consider `CN1CCN(c2ccc(C(=O)Nc3cc(CCc4ccoc4)n[nH]3)cc2)CC1` [Example 9, N-[5-[2-(3-furyl)ethyl]-2H-pyrazol-3-yl]-4-(4-methylpiperazin-1-yl)benzamide], for which the IC50 in assay [1] (setting [5]) is < 300 nM; at FGFR1 active kinase [2] (setting [6]), 137 nM; at FGFR1 active kinase [2] (setting [7]) it was < 300 nM; in assay [3] (setting [8]) it was 300 to 1000 nM.
As to `COc1cccc(CCc2cc(NC(=O)c3ccc(N4CCN(C)CC4)cc3)[nH]n2)c1` [Example 11, N-[5-[2-(3-methoxyphenyl)ethyl]-2H-pyrazol-3-yl]-4-(4-methylpiperazin-1-yl)benzamide], the IC50 in assay [1] (setting [5]) was < 300 nM; in assay [1] (setting [9]), 82.8 nM; in assay [3] (setting [8]), < 300 nM.
Consider `CCNc1ccc(C(=O)Nc2cc(CCc3cccc(OC)c3)n[nH]2)cn1` [Example 18, 6-Ethylamino-N-{5-[2-(3-methoxy-phenyl)-ethyl]-2H-pyrazol-3-yl}-nicotinamide], for which the IC50 is 300 to 1000 nM in assay [1] (setting [5]); 540 nM at FGFR1 active kinase [2] (setting [6]); 300 to 1000 nM at FGFR1 active kinase [2] (setting [7]); 300 to 1000 nM in assay [3] (setting [8]); 877 nM in assay [3] (NIH3T3, footnote example, read-out: Cell pErk, value in table footnote).
Turning to `CN1CCN(c2ccc(C(=O)Nc3cc(CCc4ccccc4)n[nH]3)cc2)CC1` [Example 1, 4-(4-methylpiperazin-1-yl)-N-(5-phenethyl-2H-pyrazol-3-yl)benzamide], the IC50 in assay [1] (setting [5]) is < 300 nM; in assay [1] (setting [9]), 220 nM; in assay [3] (setting [8]) it was 300 to 1000 nM.
As for `COc1cc(CCc2cc(NC(=O)c3ccc(N4CCN(C)CC4)cc3)[nH]n2)cc(OC)c1` [Example 10, N-[5-[2-(3,5-dimethoxyphenyl)ethyl]-2H-pyrazol-3-yl]-4-(4-methylpiperazin-1-yl)benzamide], the IC50 in assay [1] (setting [5]) was < 300 nM; at FGFR1 active kinase [4], 0.85 nM; in assay [3] (setting [8]) it was < 300 nM.
For the molecule `COc1cc(CCc2cc(NC(=O)c3ccccc3)[nH]n2)cc(OC)c1` [Example 2, N-[5-[2-(3,5-dimethoxyphenyl)ethyl]-2H-pyrazol-3-yl]benzamide], the IC50 on FGFR1 active kinase [2] (setting [6]) is 140 nM; in assay [3] (setting [8]), < 300 nM.
Turning to `CN1CCN(c2ccc(C(=O)Nc3cc(CCc4ccco4)n[nH]3)cc2)CC1` [Example 8, N-[5-[2-(2-furyl)ethyl]-2H-pyrazol-3-yl]-4-(4-methylpiperazin-1-yl)benzamide], the IC50 in assay [1] (setting [5]) was < 300 nM; in assay [1] (setting [9]), 79.5 nM; at FGFR1 active kinase [2] (setting [7]), < 300 nM; in assay [3] (setting [8]), < 300 nM.
`CN1CCN(c2ccc(C(=O)Nc3cc(CCc4cccnc4)n[nH]3)cc2)CC1` [Example 7, 4-(4-methylpiperazin-1-yl)-N-[5-(2-pyridin-3-ylethyl)-2H-pyrazol-3-yl]benzamide]: the IC50 in assay [1] (setting [5]) is < 300 nM; on FGFR1 active kinase [2] (setting [6]) it was 47 nM; on FGFR1 active kinase [2] (setting [7]), < 300 nM; in assay [3] (setting [8]), 1000 to 30000 nM.
With `C#CCNc1ccc(C(=O)Nc2cc(CCc3cccc(OC)c3)n[nH]2)nc1` [Example 17, N-[5-[2-(3-Methoxyphenyl)ethyl]-2H-pyrazol-3-yl]-5-(prop-2-ynylamino)pyridine-2-carboxamide], the IC50 is 300 to 1000 nM in assay [1] (setting [5]), 660 nM at FGFR1 active kinase [2] (setting [6]) and 300 to 1000 nM on FGFR1 active kinase [2] (setting [7]).
With `COc1cccc(CCc2cc(NC(=O)c3ccc(OC)nc3)[nH]n2)c1` [Example 14, 6-Methoxy-N-[5-[2-(3-methoxyphenyl)ethyl]-2H-pyrazol-3-yl]pyridine-3-carboxamide], the IC50 is 300 to 1000 nM in assay [1] (setting [5]); 732 nM in assay [1] (footnote example, read-out: FGFR Kinase assay - Elisa, value in table footnote); 610 nM at FGFR1 active kinase [2] (setting [6]); 300 to 1000 nM on FGFR1 active kinase [2] (setting [7]); 612 nM on FGFR1 active kinase [2] (footnote example, read-out: FGFR Kinase assay - Caliper, value in table footnote).
